Assay results as given in US9708368B2, “Linear peptide antibiotics” (priority 2012, dated 2017).
Converted amounts (≈) assume the structure as drawn. Square brackets hold non-standard residues; d marks the D form. Peptide text beside a SMILES is read from it. * marks the point of attachment. boroAla((+)-pinanediol) = C[C@H](N*)B1O[C@@H]2C[C@@H]3C[C@@H](C3(C)C)[C@]2(C)O1; Biphenylcarbonyl(4'-Bu) = CCCCc1ccc(-c2ccc(C(=O)*)cc2)cc1; X11 = CC[C@H](N*)B1OC2C[C@@H]3C[C@@H](C3(C)C)[C@]2(C)O1; X1 = C[C@H](N*)B1OC2C[C@@H]3C[C@@H](C3(C)C)[C@]2(C)O1; NMeY = CN[C@@H](Cc1ccc(O)cc1)C(=O)O; NMeT = CN[C@H](C(=O)O)[C@@H](C)O; Hpg = N[C@H](C(=O)O)c1ccc(O)cc1; NMeE = CN[C@@H](CCC(=O)O)C(=O)O; Tle = CC(C)(C)[C@H](N)C(=O)O; boroAla = C[C@H](N*)B(O)O; Abu = CC[C@H](N)C(=O)O; βAla = NCCC(=O)O

Legend:
E. coli SPase = E. coli SPase (Escherichia coli, UniProt P00803); assay: Biochemical SPase activity assay (fluorogenic peptide substrate), E. coli enzyme
S. aureus SPase = S. aureus SPase (Staphylococcus aureus, UniProt P0A070); assay: biochemical
[1] = system: methicillin resistant Staphylococcus aureus (MRSA) strain USA300 (NRS384); conditions: Method B, 35° C., 22 hours
[2] = system: Escherichia coli strain MC4100 IMP-4213, which harbors an LptD mutation; conditions: Method B; E. coli MC4100 IMP-4213 (LptD mutation); 35° C., 22 hours
In short: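 Two-fold serial dilutions of compound inoculated at final OD600 0.0005, incubated static at 35 °C for 22 h, and growth read visually.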

Chain of S. aureus SPase (P0A070 whole entry): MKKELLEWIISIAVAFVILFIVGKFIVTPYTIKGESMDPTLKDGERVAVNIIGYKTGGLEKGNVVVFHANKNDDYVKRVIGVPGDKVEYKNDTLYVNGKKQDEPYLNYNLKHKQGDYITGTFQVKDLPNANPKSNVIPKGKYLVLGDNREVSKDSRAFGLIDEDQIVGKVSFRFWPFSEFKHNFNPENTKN
Chain of E. coli SPase (P00803 whole entry): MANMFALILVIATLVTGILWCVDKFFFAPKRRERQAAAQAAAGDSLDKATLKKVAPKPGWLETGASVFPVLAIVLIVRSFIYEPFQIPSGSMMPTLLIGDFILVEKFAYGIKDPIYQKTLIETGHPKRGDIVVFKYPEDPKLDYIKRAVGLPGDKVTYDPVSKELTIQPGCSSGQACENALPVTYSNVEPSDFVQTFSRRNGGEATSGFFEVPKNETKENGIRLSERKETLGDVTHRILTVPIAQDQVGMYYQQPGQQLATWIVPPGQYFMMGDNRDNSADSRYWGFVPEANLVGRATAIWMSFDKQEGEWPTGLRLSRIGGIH

Row | SMILES | IC50 (E. coli SPase) | IC50 (S. aureus SPase) | MIC (μg/mL) S. aureus [1] | MIC (μg/mL) E. coli [2]
1 | CCCCc1ccc(-c2ccc(C(=O)NCCC(=O)N[C@@H](CCCCN)C(=O)N[C@H](C(=O)N[C@@H](C)C(=O)N[C@@H](CCC(=O)O)C(=O)N[C@@H](C)B3OC4C[C@@H]5C[C@@H](C5(C)C)[C@]4(C)O3)[C@@H](C)O)cc2)cc1 (some centres unmarked) [Compound 195] ({Biphenylcarbonyl(4'-Bu)-βAla}-KTAE-X1) | 19 nM | 2.6 nM | 1.2 µg/mL (≈ 1.25 µM) | 32 µg/mL (≈ 33.3 µM)
2 | CCCCc1ccc(-c2ccc(C(=O)N[C@H](CO)C(=O)N[C@H](C)C(=O)NCC(=O)N(C)[C@H](C(=O)N[C@@H](C)C(=O)N[C@@H](CC(N)=O)C(=O)N[C@@H](C)B3OC4C[C@@H]5C[C@@H](C5(C)C)[C@]4(C)O3)[C@@H](C)O)cc2)cc1 (some centres unmarked) [Compound 226] ({Biphenylcarbonyl(4'-Bu)}-[dS][dA]G[NMeT]AN-X1) | 440 nM | 140 nM | 2.8 µg/mL (≈ 2.87 µM) | 25 µg/mL (≈ 25.6 µM)
3 | CCCCc1ccc(-c2ccc(C(=O)N[C@H](CO)C(=O)N[C@H](C)C(=O)NCC(=O)N(C)[C@@H](CCC(=O)O)C(=O)N[C@@H](C)C(=O)N[C@@H](CC(N)=O)C(=O)N[C@@H](C)B3OC4C[C@@H]5C[C@@H](C5(C)C)[C@]4(C)O3)cc2)cc1 (some centres unmarked) [Compound 229] ({Biphenylcarbonyl(4'-Bu)}-[dS][dA]G[NMeE]AN-X1) | 290 nM | 220 nM | 64 µg/mL (≈ 63.8 µM) | 32 µg/mL (≈ 31.9 µM)
4 | CCCCc1ccc(-c2ccc(C(=O)N[C@@H](CCCNC(=N)N)C(=O)N[C@H](C(=O)N[C@@H](C)C(=O)N[C@@H](CCCCN)C(=O)N[C@@H](C)B3O[C@@H]4C[C@@H]5C[C@@H](C5(C)C)[C@]4(C)O3)[C@@H](C)O)cc2)cc1 [Compound 174] ({Biphenylcarbonyl(4'-Bu)}-RTAK-{boroAla((+)-pinanediol)}) | 59 nM | 130 nM | 0.25 µg/mL (≈ 0.273 µM) | 0.5 µg/mL (≈ 0.546 µM)
5 | CCCCc1ccc(-c2ccc(C(=O)N[C@@H](CCCCN)C(=O)N(C)[C@@H](Cc3ccc(O)cc3)C(=O)N[C@@H](C)C(=O)N[C@@H](CCCCN)C(=O)N[C@@H](C)B(O)O)cc2)cc1 [Compound 157] ({Biphenylcarbonyl(4'-Bu)}-K[NMeY]AK-boroAla) | 130 nM | 1000 nM | 2 µg/mL (≈ 2.41 µM) | 4 µg/mL (≈ 4.82 µM)
6 | CCCCc1ccc(-c2ccc(C(=O)NCCC(=O)N[C@@H](CCCCN)C(=O)N[C@H](C(=O)N[C@@H](C)C(=O)N[C@@H](CC(N)=O)C(=O)N[C@@H](C)B3OC4C[C@@H]5C[C@@H](C5(C)C)[C@]4(C)O3)C(C)(C)C)cc2)cc1 (some centres unmarked) [Compound 210] ({Biphenylcarbonyl(4'-Bu)-βAla}-K[Tle]AN-X1) | 56 nM | 16 nM | 0.71 µg/mL (≈ 0.742 µM) | 4 µg/mL (≈ 4.18 µM)
7 | CCCCc1ccc(-c2ccc(C(=O)NCCC(=O)N[C@@H](CCCCN)C(=O)N[C@H](C(=O)N[C@@H](C)C(=O)N[C@@H](CC(N)=O)C(=O)N[C@@H](CC)B3OC4C[C@@H]5C[C@@H](C5(C)C)[C@]4(C)O3)[C@@H](C)O)cc2)cc1 (some centres unmarked) [Compound 203] ({Biphenylcarbonyl(4'-Bu)-βAla}-KTAN-X11) | 130 nM | 21 nM | 1.4 µg/mL (≈ 1.46 µM) | 32 µg/mL (≈ 33.4 µM)
8 | CCCCc1ccc(-c2ccc(C(=O)NCCC(=O)N[C@@H](CCCCN)C(=O)N[C@H](C(=O)N[C@@H](C)C(=O)N[C@@H](CC(N)=O)C(=O)N[C@@H](C)B3OC4C[C@@H]5C[C@@H](C5(C)C)[C@]4(C)O3)c3ccc(O)cc3)cc2)cc1 (some centres unmarked) [Compound 209] ({Biphenylcarbonyl(4'-Bu)-βAla}-K[Hpg]AN-X1) | 12 nM | 15 nM | 1 µg/mL (≈ 1.01 µM) | 2.5 µg/mL (≈ 2.52 µM)
9 | CCCCc1ccc(-c2ccc(C(=O)NCCC(=O)N[C@@H](CCCCN)C(=O)N[C@@H](CCC(N)=O)C(=O)N[C@@H](C)C(=O)N[C@@H](CCCCN)C(=O)N[C@@H](C)B3OC4C[C@@H]5C[C@@H](C5(C)C)[C@]4(C)O3)cc2)cc1 (some centres unmarked) [Compound 216] ({Biphenylcarbonyl(4'-Bu)-βAla}-KQAK-X1) | 29 nM | 4.1 nM | 0.21 µg/mL (≈ 0.213 µM) | 4 µg/mL (≈ 4.06 µM)
10 | CCCCc1ccc(-c2ccc(C(=O)NCCC(=O)N[C@@H](CCCCN)C(=O)N[C@H](C(=O)N[C@@H](CC)C(=O)N[C@@H](CC(N)=O)C(=O)N[C@@H](C)B3OC4C[C@@H]5C[C@@H](C5(C)C)[C@]4(C)O3)[C@@H](C)O)cc2)cc1 (some centres unmarked) [Compound 206] ({Biphenylcarbonyl(4'-Bu)-βAla}-KT[Abu]N-X1) | 6.3 nM | 5.2 nM | 0.5 µg/mL (≈ 0.521 µM) | 2 µg/mL (≈ 2.09 µM)
11 | CCCCc1ccc(-c2ccc(C(=O)N[C@@H]3CN[C@H](C(=O)N[C@H](C(=O)N[C@@H](C)C(=O)N[C@@H](CCCCN)C(=O)N[C@@H](C)B4OC5C[C@@H]6C[C@@H](C6(C)C)[C@]5(C)O4)[C@@H](C)O)C3)cc2)cc1 (some centres unmarked) [Compound 268] | 1600 nM | 81 nM | 1 µg/mL (≈ 1.15 µM) | 16 µg/mL (≈ 18.4 µM)
